Reference: publication PMC9326877 (Journal of Food and Drug Analysis, 2018)

Target: P-glycoprotein (P-gp) (Sus scrofa, UniProt K7GMM7)
Assay type: in vitro ADME, pig (Sus scrofa domesticus)
Settings: Landrace, pig

P-glycoprotein (P-gp), sequence (K7GMM7 1-1248): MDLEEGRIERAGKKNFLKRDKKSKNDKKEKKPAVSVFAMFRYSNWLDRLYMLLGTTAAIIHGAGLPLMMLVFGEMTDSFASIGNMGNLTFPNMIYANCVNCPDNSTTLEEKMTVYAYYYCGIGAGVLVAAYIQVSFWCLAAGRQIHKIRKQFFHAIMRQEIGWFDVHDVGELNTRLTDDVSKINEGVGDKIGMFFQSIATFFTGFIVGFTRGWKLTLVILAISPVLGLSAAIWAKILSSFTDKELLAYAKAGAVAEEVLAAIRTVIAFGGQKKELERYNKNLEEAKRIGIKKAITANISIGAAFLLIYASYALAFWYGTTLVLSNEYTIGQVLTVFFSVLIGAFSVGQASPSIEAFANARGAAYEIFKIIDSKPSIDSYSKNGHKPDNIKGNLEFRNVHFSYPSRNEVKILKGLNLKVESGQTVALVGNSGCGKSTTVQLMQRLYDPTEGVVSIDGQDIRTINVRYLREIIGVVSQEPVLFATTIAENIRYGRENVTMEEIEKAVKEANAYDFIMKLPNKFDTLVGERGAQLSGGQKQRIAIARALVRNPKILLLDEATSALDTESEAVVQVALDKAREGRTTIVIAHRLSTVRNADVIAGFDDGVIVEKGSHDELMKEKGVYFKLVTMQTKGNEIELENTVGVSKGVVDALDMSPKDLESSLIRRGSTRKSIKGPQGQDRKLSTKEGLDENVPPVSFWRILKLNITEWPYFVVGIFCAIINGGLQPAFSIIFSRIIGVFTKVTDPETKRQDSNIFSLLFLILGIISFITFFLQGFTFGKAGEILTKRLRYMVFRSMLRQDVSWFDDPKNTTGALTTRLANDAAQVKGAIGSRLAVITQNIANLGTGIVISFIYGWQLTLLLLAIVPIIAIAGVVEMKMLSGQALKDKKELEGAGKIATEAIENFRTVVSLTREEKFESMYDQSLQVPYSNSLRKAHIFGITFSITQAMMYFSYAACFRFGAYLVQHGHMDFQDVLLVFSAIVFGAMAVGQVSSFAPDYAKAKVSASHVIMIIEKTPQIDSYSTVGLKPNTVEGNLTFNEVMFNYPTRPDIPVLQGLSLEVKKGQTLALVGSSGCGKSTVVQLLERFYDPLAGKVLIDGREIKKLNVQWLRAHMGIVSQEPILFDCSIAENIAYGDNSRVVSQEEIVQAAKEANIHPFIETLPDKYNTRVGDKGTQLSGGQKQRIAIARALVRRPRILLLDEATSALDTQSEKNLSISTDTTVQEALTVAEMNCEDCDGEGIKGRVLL

Q: `COC(=O)c1ccccc1-c1c2ccc(=N)cc-2oc2cc(N)ccc12` [R123, Rhodamine 123] was tested. Which efflux ratio at 120 min, 5 μM did it give?
A: The efflux ratio at 120 min, 5 μM was 2.2.
